Experimental data published in the PolyMetriX glass transition set.
± gives the standard deviation of the reports.

Row | Structure (SMILES) | glass transition temperature [°C]
1 | *CC(*)(C)C(=O)OCC(F)(F)C(F)(F)F (repeat unit) | 77.00
2 | *CCCCCCOC(=O)OCCCCCCCCCOC(=O)OCCCCCCOc1ccc(C(=O)c2ccc(O*)cc2)cc1 (repeat unit) | -6.00
3 | *CCC(C)CC(C)(C)CNC(=O)c1ccc(C(=O)N*)cc1 (repeat unit) | 147.00
4 | *c1cc(CCCCCCCCCCCC)c(*)s1 (repeat unit) | -24.2 ± 8.1
5 | *O[Si](*)(C)OCCCCCCCCCCCOc1ccc(C2COC(c3ccc(OC)cc3)OC2)cc1 (repeat unit) | 44.00
6 | *CC(*)C(=O)OCCCCCCn1c2ccccc2c2ccccc21 (repeat unit) | 48.00
7 | *CC(O)COC(=O)CCCCC(=O)OCC(O)COc1ccc(C(C)(C)c2ccc(O*)cc2)cc1 (repeat unit) | 34.00
8 | *NC(CCC(=O)OCCCCCCCCCC)C(*)=O (repeat unit) | -62.00
9 | *c1ccc(C(=O)OCCCCCCCCOc2ccc(/C=C3\CCC/C(=C\c4ccc(OCCCCCCCCOC(=O)c5ccc(-c6nnc(*)o6)cc5)cc4)C3=O)cc2)cc1 (repeat unit) | 59.00
10 | *CC(*)(C)C(=O)OCc1ccc(OCCOCCOCC)c(OCCOCCOCC)c1 (repeat unit) | -33.00
11 | *c1ccc2oc(-c3cccc(-c4nc5cc(C(*)(c6ccccc6)C(F)(F)F)ccc5o4)c3)nc2c1 (repeat unit) | 301.00
12 | */C=C(\C#N)C(=O)Nc1cc(-c2ccc(O)c(NC(=O)/C(C#N)=C/c3ccc(/C=C/c4ccc(N(c5ccccc5)c5ccc(N(c6ccccc6)c6ccc(/C=C/c7ccc(*)s7)cc6)cc5)cc4)s3)c2)ccc1O (repeat unit) | 221.00
13 | *CCN(CCOC(=O)c1ccc(C(=O)O*)c(OCCCCC)c1)c1ccc(/N=N/c2nc(C#N)c(C#N)[nH]2)cc1 (repeat unit) | 131.00
14 | *CC(C)(C)C1C(=O)N(C(C)C)C(=O)C1* (repeat unit) | 145.00
15 | *CCOP(=O)(/N=N/c1ccc(CCOC(=O)c2cc(C(=O)OCCc3ccc(/N=N/P(=O)(O*)OC)cc3)cc(C(C)(C)C)c2)cc1)OC (repeat unit) | 84.00
16 | *C(=O)c1cccc(C(=O)N2CCN(*)CC2)c1 (repeat unit) | 214.50

Row | Structure (SMILES) | glass transition temperature [°C]
17 | *CCCCOC(=O)c1ccc(N/C=N/c2ccc(C(=O)O*)cc2)cc1 (repeat unit) | 91.00
18 | *c1cc(CCOC(=O)C(C)Br)c(*)s1 (repeat unit) | 49.00
19 | *Nc1ccc(C(C)(C)c2ccc(NC(=O)c3cc(C(*)=O)cc(N4C(=O)C=CC4=O)c3)cc2)cc1 (repeat unit) | 303.00
20 | *CC(O)COC(=O)CCCCC(=O)OCC(O)COc1ccc(C(=O)Oc2ccc(O*)cc2)cc1 (repeat unit) | 37.00
21 | *OC(=O)c1cccc(C(=O)OC2CC3CC(*)CC(C2)O3)c1 (repeat unit) | 113.00
22 | *CC/C=C(/*)C(C)C (repeat unit) | -47.00
23 | *CCCCCCCCCNC(=S)N* (repeat unit) | 48.00
24 | *CCCCCCOc1ccc(C(=O)N(C(=O)c2ccc(O*)cc2)c2ccccc2)cc1 (repeat unit) | 100.00
25 | *CCCCCCCCCCOc1ccc(OC(=O)c2ccc(OCCOCCOCCOc3ccc(C(=O)Oc4ccc(O*)cc4)cc3)cc2)cc1 (repeat unit) | 64.00
26 | *C(=O)c1ccc(N(*)CCC)cc1 (repeat unit) | 136.00
27 | *c1cccc(P(=O)(c2ccc(C(F)(F)F)cc2)c2cccc(-n3c(=O)c4cc5c(=O)n(*)c(=O)c5c(-c5cc(C(F)(F)F)cc(C(F)(F)F)c5)c4c3=O)c2)c1 (repeat unit) | 290.00
28 | *O[Si](*)(C)CCCCCCCCCCC(=O)Oc1ccc2cc(C(=O)OC3CCC4(C)C(=CCC5C4CCC4(C)C(C(C)CCCC(C)C)CCC54)C3)ccc2c1 (repeat unit) | 27.00
29 | *CC(*)(C)C(=O)OCCOCCOCCOCCOCCOCCOCCOCCOC (repeat unit) | -58.00
30 | *CC(*)(Cl)Cl (repeat unit) [Poly(vinylidene chloride)] | -9.83 ± 9.4
31 | *Oc1c(-c2ccccc2)cc(*)cc1-c1ccc(C(C)(C)C)cc1 (repeat unit) | 240.00
32 | *CCCCCOc1ccc(OC(=O)c2ccc(C(=O)Oc3ccc(O*)cc3)cc2)cc1 (repeat unit) | 112.00

Continued, values first:

Row | glass transition temperature [°C] | Structure (SMILES)
33 | 230.00 | *c1cc(C(=O)Oc2ccc(-c3ccc(O[Si](C)(C)C(C)(C)C)cc3)cc2)cc(N2C(=O)c3ccc(-c4ccc5c(c4)C(=O)N(*)C5=O)cc3C2=O)c1 (repeat unit)
34 | 230.00 | *Oc1ccc(NC(=O)c2ccc(-c3ccc(C(=O)Nc4ccc(Oc5ccc(C(C)(C)c6ccc(*)cc6)cc5)cc4)c(C)c3)cc2C)cc1 (repeat unit)
35 | 117.50 | *CC(O)COc1ccc(C(C)(C)c2ccc(OCC(O)COc3ccc(S(=O)(=O)c4ccc(O*)c(C)c4)cc3C)cc2)cc1 (repeat unit)
36 | 360.00 | *c1ccc(C(=O)Nc2ccc(Oc3ccc(NC(=O)c4ccc(-n5c(=O)c6cc7c(=O)n(*)c(=O)c7cc6c5=O)cc4)cc3)cc2)cc1 (repeat unit)
37 | 292.00 | *c1ccc2c(c1)C(=O)N(c1ccc(Oc3ccc(N4C(=O)c5ccc(C(*)(C(F)(F)F)C(F)(F)F)cc5C4=O)cc3)c(O)c1)C2=O (repeat unit)
38 | 158.00 | *Oc1cccc(OC(=O)c2ccc(OC(=O)c3cccc(C(=O)Oc4ccc(C(*)=O)cc4)c3)cc2)c1 (repeat unit)
39 | 255.00 | *c1ccc(OC(=O)c2ccc([Si](C)(C)c3ccc(C(=O)Oc4ccc(C5(*)c6ccccc6C(=O)N5c5ccccc5)cc4)cc3)cc2)cc1 (repeat unit)
40 | 266.00 | *c1cccc(N2C(=O)c3cccc(Oc4ccc(S(=O)(=O)c5ccc(Oc6cccc7c6C(=O)N(*)C7=O)cc5)cc4)c3C2=O)c1 (repeat unit)
41 | 275.00 | *c1cccc(C(=O)Nc2ccc(Oc3ccc(-c4ccc(Oc5ccc(NC(=O)c6cccc(N7C(=O)c8ccc(-c9cccc%10c9C(=O)N(*)C%10=O)cc8C7=O)c6)cc5)cc4)cc3)cc2)c1 (repeat unit)
42 | 132.00 | *CCCC(=O)Oc1ccc(OC(=O)c2ccc3c(c2)C(=O)N(*)C3=O)cc1 (repeat unit)
43 | 233.00 | *C(=O)c1ccc(Oc2ccc(-c3ccc(Oc4ccc(C(=O)c5ccc6c(c5)C(=O)N(c5ccc(Oc7ccc(N8C(=O)c9ccc(*)cc9C8=O)cc7)cc5)C6=O)cc4)cc3)cc2)cc1 (repeat unit)
44 | 125.00 | *c1ccc(Oc2ccc(C(C)(C)c3ccc(Oc4ccc(-c5cccc(*)n5)cc4C(F)(F)F)cc3)cc2)c(C(F)(F)F)c1 (repeat unit)
45 | 145.00 | *Oc1ccc(Oc2ccc(C(=O)c3ccc(Oc4ccc(Oc5ccc(C(=O)c6ccc(*)c(C(C)C)c6)cc5)cc4)cc3)cc2C(C)C)cc1 (repeat unit)
46 | 198.00 | *C(=O)c1ccc2c(c1OCc1ccccc1[N+](=O)[O-])C(=O)N(c1ccc(Oc3ccc(N4C(=O)c5ccc(*)c(OCc6ccccc6[N+](=O)[O-])c5C4=O)cc3)cc1)C2=O (repeat unit)
